Test results taken from PubChem BioAssay (NCI).
“And” between values parts separate entries of the source, which are not always exact repeats. Identical values can stand only once.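 Test compounds were applied to cells in 96-well plates for 48 hours at 5 doses. GI50 = concentration required for 50% inhibition of growth. TGI: total growth inhibition.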

How the values were obtained:
Test in all cases: NCI anticancer screen, dose series, 48 h
MCF7 breast = test system: MCF7 breast
MDA-MB-435 = test system: MDA-MB-435
BT-549 breast = test system: BT-549 breast
T-47D breast = test system: T-47D breast
PC-3 prostate = test system: PC-3 prostate
UACC-62 melanoma = test system: UACC-62 melanoma

Compound | GI50 (MCF7 breast) | TGI (MCF7 breast) | GI50 (MDA-MB-435) | TGI (MDA-MB-435) | GI50 (BT-549 breast) | TGI (BT-549 breast) | GI50 (T-47D breast) | TGI (T-47D breast) | GI50 (PC-3 prostate) | TGI (PC-3 prostate) | GI50 (UACC-62 melanoma) | TGI (UACC-62 melanoma)
CC(=O)N[C@@H](Cc1ccc(OP(=O)(O)O)cc1)C(=O)N[C@H]1CCC(=O)N2CCC[C@@H](C(=O)NCc3cccc4ccccc34)N2C1=O | > 25 µM | > 25 µM | > 25 µM | > 25 µM | > 25 µM | > 25 µM | > 25 µM | > 25 µM | > 25 µM | > 25 µM | > 25 µM | > 25 µM
Nc1nc(N)c2cc(Sc3ccc(Cl)cc3)ccc2n1 | 1.16 µM | 2.79 µM | 0.403 µM | 1.91 µM | – | – | 1.61 µM | 3.33 µM | 0.592 µM | 13.8 µM | 0.795 µM | 14.5 µM
CCN1C2=C(SC(=S)C1=C1SC(C(=O)c3ccccc3)=C(C(=O)c3ccccc3)S1)SC(=Nc1ccccc1)C2=O | 7.44 µM | > 100 µM | 9.41 µM | > 100 µM | 5.2 µM | 42.7 µM | 19.6 µM | > 100 µM | 17.6 µM | > 100 µM | 12 µM | > 70.1 µM
Cc1ccc([I+]c2ccc(C)cc2)cc1 | 4.01 µM | > 100 µM | 5.28 µM | 77.3 µM | 5.28 µM | 75.7 µM | 3.69 µM | 54.2 µM | 6.73 µM | > 100 µM | 8.86 µM | > 100 µM
CC[n+]1c(/C=C/c2ccc(N3CCCC3)cc2)cccc1/C=C/c1ccc(N2CCCC2)cc1 | 0.213 µM | 1.35 µM | 0.343 µM | 2.34 µM | 0.103 µM | 1.76 µM | 0.0332 µM | 0.931 µM | 0.194 µM | 1.23 µM | 0.356 µM and 0.387 µM | 1.7 µM and 1.67 µM
Cc1cn2c(/C=N/NC3=NCCN3)c(-c3ccc(Cl)c([N+](=O)[O-])c3)nc2s1 | 3.8 µM | > 50 µM | – | – | 0.892 µM | 1.77 µM | 1.75 µM | > 50 µM | 1.65 µM | 4.56 µM | 0.933 µM | 1.98 µM
Clc1ccc(Nc2ncnc3ccccc23)cc1 | 30.4 µM | > 100 µM | 42.2 µM | > 100 µM | 72.8 µM | > 100 µM | 80 µM | > 100 µM | 47 µM | > 100 µM | 78 µM | > 100 µM
O=C(O)c1cc(C(=O)C(=O)c2cc(C(=O)O)c(O)c3ccccc23)c2ccccc2c1O | – | > 100 µM | – | > 100 µM | – | > 100 µM | – | > 100 µM | – | > 100 µM | – | > 100 µM
Fc1ccc(-c2nn3c(COc4ccccc4Cl)nnc3s2)cc1Oc1ccccc1 | 52.5 µM | > 100 µM | 33.2 µM | > 100 µM | 41.1 µM | > 100 µM | 34.5 µM | > 100 µM | 22.6 µM | 73.8 µM | 17.8 µM | 39 µM
COc1ncnn2ccc(-c3cnc4nc(C)n(Cc5nnc(C(C)F)o5)c4c3)c12 (stereo not drawn) | – | – | 0.223 µM | > 100 µM | 0.0585 µM | 1.61 µM | 0.0853 µM | > 100 µM | 0.281 µM | > 100 µM | – | –
COc1cc2cc(Oc3ccc(NC(=O)Nc4ccc(F)c(C(F)(F)F)c4)cc3)c(C)nc2cc1OCCN1CCOCC1 | 1.46 µM | 3.48 µM | 1.91 µM | 3.9 µM | 2.44 µM | 8.46 µM | 1.91 µM | 32.1 µM | 1.44 µM | 10.1 µM | 1.36 µM | 4.24 µM
CCOC(=O)Cc1csc(Nc2nc(O)c(C3=c4ccccc4=NC3=O)s2)n1 | 85.5 µM | > 100 µM | 40.9 µM | > 100 µM | 92.3 µM | > 100 µM | 54.4 µM | > 100 µM | 30.8 µM | > 100 µM | 15.7 µM | 34.6 µM
Nc1n[nH]c2ccc([C@H]3[C@@H]4C5CCC(C5)[C@@H]4c4c(ccc5[nH]ncc45)N3S(=O)(=O)C3CC3)cc12 (stereo partly drawn) | 0.2 µM | > 35.9 µM | 0.141 µM | 1.35 µM | 0.34 µM | 5.73 µM | – | – | 0.185 µM | 9.85 µM | 0.137 µM | 5.54 µM
CCOC(=O)Nc1nc(-c2ccccc2)c(C)s1 | – | > 100 µM | – | > 100 µM | – | > 100 µM | – | > 100 µM | – | > 100 µM | – | > 100 µM
CN(CCNc1ccc(C(=N)N)cc1)c1ccc(C(=N)N)cc1 | 30.5 µM | > 100 µM | 66.3 µM | > 100 µM | 13.8 µM | 38.4 µM | 23.9 µM | > 100 µM | 53 µM | > 100 µM | 32.6 µM | > 100 µM
Nc1ncnc2occ(-c3ccc(NC(=O)Nc4cc(C(F)(F)F)ccc4F)cc3)c12 | 2.37 µM and 1.16 µM | 17.7 µM and 12.6 µM | 4.35 µM and 2.37 µM | 11.3 µM and 5.59 µM | 6.83 µM and 3.42 µM | 17.4 µM and 9.93 µM | 6.42 µM and 3.5 µM | 16.9 µM and 10.9 µM | 5.92 µM and 5.35 µM | 15.8 µM and 16.1 µM | 4.29 µM and 2.33 µM | 9.76 µM and 5.8 µM
NNC(=S)N/N=C/c1ccccn1 | 2.99 µM | > 100 µM | 5.2 µM | > 100 µM | 4.29 µM | > 100 µM | 2.44 µM | > 100 µM | 5.62 µM | > 100 µM | 2.03 µM | 14 µM
CC12OC(C(=O)C13CC3)C1C(=O)c3cccc(O)c3C(=O)C12 (stereo not drawn) | 14.3 µM | > 57.9 µM | 16.9 µM | > 57.7 µM | 19.1 µM | 58.1 µM | 23.3 µM | > 70.6 µM | 10.3 µM | 34.3 µM | 5.23 µM | 37.2 µM
O=C(O)c1ccc(NCn2nc(-c3ccccc3O)oc2=S)cc1O | > 100 µM | > 100 µM | > 100 µM | > 100 µM | > 100 µM | > 100 µM | > 100 µM | > 100 µM | 86.6 µM | > 100 µM | 39.8 µM | > 100 µM
Nc1cc2c(c3ccccc13)C(CCl)CN2C(=O)c1cc2cc(NC(=O)c3cc4ccccc4o3)ccc2[nH]1 (stereo not drawn) | > 0.11 µM | < 0.11 µM | > 0.11 µM | < 0.11 µM | – | 0.00708 µM | > 0.11 µM | – | – | – | – | 0.0206 µM
